Seven compounds from patent publication US8716293B2, “Macrocyclic integrase inhibitors” (Janssen R&D Ireland, priority 2010, dated 2014) can be followed below.

Structures are written as SMILES.

A short description of data set [1]: pharmacokinetic evaluation in the rat. In kind it is in vivo, male Sprague-Dawley rats. The note with it: intravenous bolus 2 mg/kg; for CLp / clearance: plasma clearance; for t1/2 / half-life: terminal phase elimination half-life; for Vss / Vd: volume of distribution at steady-state; for clearance / half-life / Vd: male, Sprague-Dawley, plasma, iv, 2 mg/kg; for clearance: read-out: CLp; for Vd: read-out: Vss. The protocol:
For determining the pharmacokinetic properties in rat, each HIV integrase inhibitor was dissolved in PEG400/normal saline (70:30 (v/v)) at a nominal concentration of 1 mg/ml and administered (2 ml/kg) to male Sprague-Dawley rats (n=3 per test compound) as an intravenous bolus via a saphenous vein at a dose level of 2 mg/kg. […] Plasma was obtained by centrifugation and stored at −20° C. prior to analysis. Analysis was performed using liquid chromatography (LC) with tandem mass spectrometric detection (MS/MS) in positive ion mode. Each HIV integrase inhibitor was eluted from a reversed-phase column with a gradient of acetonitrile and water containing 0.1% (v/v) formic acid. At the time of analysis plasma samples (50 p. 1) were thawed and […] with 200 μl of acetonitrile containing 0.1% (v/v) formic acid and centrifuged. Aliquots of the supernatant (100 μl) were diluted with 200 μl of water containing 25% (v/v) methanol and 0.1% (v/v) formic acid and injected via an electrospray interface directly into the Mass Spectrometer. Calibration standards and quality controls were prepared in rat plasma at the same time as the samples and analyzed before and after the samples containing HIV integrase inhibitor. Non-compartmental pharmacokinetic analysis of the plasma concentration-time curves was performed using WinNonLin software to provide estimates of the plasma clearance (CLp), volume of distribution at steady-state (Vss) and terminal phase elimination half-life (t1/2).

The test system of data set [2] is cryopreserved hepatocytes from Sprague Dawley rats. Briefly: metabolic stability in rat hepatocytes. The data set is classed as in vitro ADME. Conditions: 1 μM, percentage turnover; for Rat (% TO) 15 min: 15 min incubation; for Rat (% TO) 60 min: 60 min incubation. On the procedure: (§1) For determining in vitro metabolic stability, cryopreserved hepatocytes from Sprague Dawley rats and of human subjects (pool of male and female) were obtained from an external supplier (Cellz Direct Inc., Paisly, UK). Tested compounds were dissolved in DMSO and this stock solution was used to spike rat and human hepatocyte cell cultures (10^6 cells/ml) at a final concentration of 1 μM (final percentage of DMSO was 0.02% (v/v)). Incubations were performed for up to 60 min at approximately 37° C. and terminated by the addition of two volumes of DMSO. Samples were then centrifuged and aliquots of the supernatant analyzed using liquid chromatography (LC) with electrospray mass spectrometric detection (MS/MS) to monitor the disappearance of parent compound by single reaction monitoring (SRM) and reverse-phase chromotatography with a gradient of acetonitrile and water containing 0.1% (v/v) formic acid. Based on peak area, the percentage of parent compound remaining after 15 and 60 min incubation was calculated and the results, expressed as percentage turnover (TO) relative to time zero controls.

The subject of data set [3] is cryopreserved hepatocytes of human subjects. Briefly: metabolic stability in human hepatocytes. Conditions: 1 μM, percentage turnover; for Human (% TO) 15 min: 15 min incubation; for Human (% TO) 60 min: 60 min incubation. In kind it is in vitro ADME. The protocol:
as §1

In data set [4] the test system is HIV-1 SDM strain G140S-Q148H. Briefly: cell-based HIV-1 replication assay in MT4-LTR-EGFP cells, G140S-Q148H mutant. The note with it: fold change in activity against G140S-Q148H mutant compared to wild type HIV. An excerpt: (§2) MT4-LTR-enhanced green fluorescent protein (EGFP) cells were obtained by transfecting MT4 cells with a selectable construct encompassing the coding sequences for the HIV LTR as a promoter for the expression of EGFP and subsequent selection of permanently transfected cells. MT4-cytomegalovirus (CMV)-EGFP cells were obtained by selection for permanently transformed MT4 cells with a CMV-EGFP reporter gene. Cell lines were maintained in RPMI 1640 medium supplemented with 10% heat-inactivated fetal calf serum, 2 mM L-glutamine, 0.1% NaHCO3, and antibiotics (0.02% gentamicin and 0.8% G418) and incubated in a humidified incubator with a 5% CO2 atmosphere at 37° C.
(§3) N155H and Q148R mutant Integrase coding sequences were constructed in the pUC19-5′HXB2D vector (XbaI-SalI fragment of pHXB2D), containing the HIV-1 clone HXB2D IN coding sequence, by using a QuikChange site-directed mutagenesis kit (Stratagene, La Jolla, Calif.) and HPLC-purified primers (Genset Oligos, La Jolla, Calif.). Altered plasmid sequences were confirmed by dideoxyribose sequencing. For generation of site-directed mutant (SDM) virus stocks, MT4 cells were subcultured at a density of 250,000 cells/ml on the day before transfection. Cells were pelleted and resuspended in phosphate-buffered saline at a concentration of 3.1×10^6 cells/ml. A 0.8-ml portion ([…]) was used for each transfection. Transfections were performed with a Bio-Rad Gene Pulser (Bio-Rad, Hercules, Calif.) with 0.4-cm electrode cuvettes (Bio-Rad). Cells were electroporated with 10 μg of SalI-linearized pUC19-3′HXB2D (SalI-XbaI fragment of pHXB2D) and 5 μg of SalI-digested SDM at 250 μF and 300 V, followed by a 30-min incubation at room temperature. Ten ml of fresh culture medium was then added to the suspension of transfected cells, and incubation was performed at 37° C. in a humidified atmosphere with 5% CO2. Cell cultures were monitored for the appearance of cytopathic effect (CPE).
(§4) The inhibitory antiviral activity of different compounds was determined in a cell-based HIV-1 replication assay. MT4-LTR-EGFP cells (150,000 cells/ml) were infected with HIV-1 (IIIB or SDM strains Q148R, N155H, or G140S-Q148H; multiplicity of infection [MOI] of 0.0025) in the presence or absence of inhibitor. After 3 days of incubation, the inhibition of HIV replication was quantified by measuring EGFP fluorescence, and expressed as the compound concentration required for 50% inhibition of HIV-1 replication in cell culture (EC50).

Data set [5] has as its system HIV-1 SDM strain N155H. Briefly: cell-based HIV-1 replication assay in MT4-LTR-EGFP cells, N155H mutant. The note with it: fold change in activity against N155H mutant compared to wild type HIV.
Excerpt: as §2, §3, §4

The test system of data set [6] is HIV-1 LAI (IIIB). Briefly: antiviral assay in the presence of 50% human serum. The data set is classed as cell-based. Conditions: MT-4-LTR-EGFP cells, 4 days, resazurin cell viability. The protocol: For the antiviral assay in the presence of 50% human serum, MT-4-LTR-EGFP cells were infected with HIV-1 LAI (IIIB) at a MOI of 0.001 to 0.01 CCID50/cell in RPMI1640 medium. Following 1 h of incubation, cells were washed and plated into a 96-well plate containing serial dilutions of test compound in the presence of 10% fetal calf serum or 50% human serum. After 4 days of incubation, the EC50 in the presence of 50% human serum (EC50/HS) was determined by a cell viability assay using resazurin (as described by Fields, R. D., and M. V. Lancaster (1993) Am. Biotechnol. Lab. 11:48-50).
(In general: Alamar Blue is a resazurin reagent that responds to reducing activity.)

Data set [7] deals with HIV-1 SDM strain Q148R. Kind of data set: cell-based HIV-1 replication assay in MT4-LTR-EGFP cells, Q148R mutant. The note with it: fold change in activity against Q148R mutant compared to wild type HIV.
Excerpt: as §2, §3, §4

Data set [8] concerns HIV-1 (IIIB). Kind of data set: cell-based HIV-1 replication assay in MT4-LTR-EGFP cells, wild type. The note with it: Human immunodeficiency virus 1, 72 h, 3 days, EGFP fluorescence.
Excerpt: as §2
as §4, with “(EC50). The antiviral activities of the different compounds are reported in Table 4 and expressed as EC50 for the inhibition of wild type HIV (IIIB EC50) and as fold change in activity against the mutant strains (FC-Q148R, FC-N155H, FC-G140S-Q148H) compared to the activity against wild type HIV.” for “(EC50).”

[9] abbreviates: Human immunodeficiency virus 1, IIIB, 96 h.

In the case of `CCN1C[C@H](C)n2c(c(O)c3c(=O)n4nc(c32)N(C)S(=O)(=O)CCCCCOc2cc(F)ccc2C4)C1=O` [Compound 5], in data set [1], the CLp was determined as 8 mL/min/kg; the t1/2 is recorded as 4.9 h; the Vss – broadly, a proportionality between amount in the body and measured concentration, not a real space – was found to be 1.5 L/kg. In data set [2], the “Rat (% TO) 15 min” value came to 15 % TO and the “Rat (% TO) 60 min” value amounted to 20 % TO. For the same compound, in data set [3], the “Human (% TO) 15 min” value is recorded as 12 % TO and the “Human (% TO) 60 min” value worked out at 38 % TO. The compound also registered an FC-G140S-Q148H in data set [4] of 1.2. The compound also gave an FC-N155H in data set [5] of 2.4. In addition, in data set [6], the EC50 (commonly the midpoint of the concentration-response curve) amounted to 16 nM. Besides, the FC-Q148R in data set [7] came out at 0.5.
On to `CC(C)N1C[C@H](C)n2c(c(O)c3c(=O)n4nc(c32)N(C)S(=O)(=O)CCCCOc2cc(F)ccc2C4)C1=O` [Compound 6], for which, in data set [1], the CLp was found to be 5 mL/min/kg, the t1/2 stood at 5.5 h and the Vss was 0.7 L/kg. Further, in data set [2], the “Rat (% TO) 15 min” value came out at 20 % TO and the “Rat (% TO) 60 min” value came to 33 % TO. For the same compound, in data set [3], the “Human (% TO) 15 min” value is 23 % TO and the “Human (% TO) 60 min” value turned out to be 36 % TO. The FC-G140S-Q148H in data set [4] is listed as 1.7. Besides, the FC-N155H in data set [5] was 3.2. For the same compound, in data set [6], the EC50 was 5 nM. Besides, the FC-Q148R in data set [7] was 0.7.
`CC(C)N1C[C@H](C)n2c(c(O)c3c(=O)n4nc(c32)N(C)S(=O)(=O)CCCCCOc2cc(F)ccc2C4)C1=O` [Compound 7]: in data set [1], the CLp amounted to 7 mL/min/kg, the t1/2 turned out to be 4.8 h and the Vss came to 0.9 L/kg. In data set [2], the “Rat (% TO) 15 min” value was 21 % TO and the “Rat (% TO) 60 min” value is listed as 31 % TO. Besides, in data set [3], the “Human (% TO) 15 min” value is 2 % TO and the “Human (% TO) 60 min” value was 12 % TO. The FC-G140S-Q148H in data set [4] came out at 1.0. This compound had an FC-N155H in data set [5] of 2.2. Further, in data set [6], the EC50 came to 12 nM. Also, the FC-Q148R in data set [7] is reported as 0.4.
In data set [1], `CCN1C[C@H](C)n2c(c(O)c3c(=O)n4nc(c32)N2CCN(CC2)C(=O)CCCOc2cc(F)ccc2C4)C1=O` [Compound 44] had a CLp of 16 mL/min/kg, a t1/2 of 5.2 h and a Vss of 1.8 L/kg. In addition, in data set [2], the “Rat (% TO) 15 min” value is given as 48 % TO and the “Rat (% TO) 60 min” value came out at 70 % TO. In data set [3], the “Human (% TO) 15 min” value is recorded as 20 % TO and the “Human (% TO) 60 min” value came out at 43 % TO. The same compound registered an FC-G140S-Q148H in data set [4] of 1.3. Also, in data set [5], the FC-N155H was 3.9. Further, in data set [6], the EC50 was determined as 6 nM. The compound further registered an FC-Q148R in data set [7] of 0.7.
In data set [1], `CCN1C[C@H](C)n2c(c(O)c3c(=O)n4nc(c32)N(C)S(=O)(=O)CCCCOCc2cc(F)ccc2C4)C1=O` [Compound 48] came in with a CLp of 20 mL/min/kg, a t1/2 of 1.4 h and a volume of distribution (Vss) of 0.7 L/kg. Also, in data set [2], the “Rat (% TO) 15 min” value is recorded as 65 % TO and the “Rat (% TO) 60 min” value was determined as 86 % TO. Also, in data set [3], the “Human (% TO) 15 min” value is on record as 38 % TO and the “Human (% TO) 60 min” value stood at 72 % TO. Further, in data set [4], the FC-G140S-Q148H turned out to be 1.3. In addition, the FC-N155H in data set [5] was found to be 4.7. Also, in data set [6], the EC50 came out at 4 nM. Besides, the FC-Q148R in data set [7] is listed as 0.5.
In the case of `CCN1C[C@H](C)n2c(c(O)c3c(=O)n(Cc4ccc(F)c(Cl)c4)nc(C(=O)NC)c32)C1=O` [Compound 52r, reference compound], in data set [1], the clearance was 5 mL/min/kg, the half-life (usually the time in which the quantity being followed falls by half) is 1.6 h and the Vd was 0.2 L/kg. For the same compound, in data set [2], the “Rat (% TO) 15 min” value is listed as 38 % TO and the “Rat (% TO) 60 min” value is recorded as 76 % TO. Besides, in data set [3], the “Human (% TO) 15 min” value stood at 25 % TO and the “Human (% TO) 60 min” value is reported as 44 % TO. The same compound displayed an FC-G140S-Q148H in data set [4] of 56.9. For the same compound, in data set [8], the EC50 was determined as 3.4 nM. In data set [5], the FC-N155H worked out at 6.8. Besides, in data set [6] (setting [9]), the EC50 is 29 nM. In data set [7], this compound registered an FC-Q148R of 1.2.
Take `CCN1C[C@H](C)n2c(c(O)c3c(=O)n(Cc4ccc(F)cc4)nc(N(C)S(C)(=O)=O)c32)C1=O` [Compound 53r, reference compound]: in data set [1], the clearance was 75 mL/min/kg, the half-life is 1.7 h and the Vd stood at 2.9 L/kg. In data set [2], the “Rat (% TO) 15 min” value was determined as 60 % TO and the “Rat (% TO) 60 min” value is given as 89 % TO. For the same compound, in data set [3], the “Human (% TO) 15 min” value was found to be 41 % TO and the “Human (% TO) 60 min” value amounted to 84 % TO. This compound yielded an FC-G140S-Q148H in data set [4] of 2.0. Besides, a half-maximal response in data set [8] (EC50) required 0.99 nM. Also, the FC-N155H in data set [5] came out at 4.9. Also, the EC50 in data set [6] (setting [9]) came out at 3 nM. In data set [7], the FC-Q148R is reported as 0.4.
